Results on 24 compounds are retold here after patent US20240018166A1, “SULFONYL UREA NLRP3 INFLAMMASOME INHIBITORS” (Venatorx Pharmaceuticals, Inc., priority 2020, published 2024).

A short description of series [1]: MTT cell viability assay, THP-1 cells. The format is cell-based. Conditions: human, unstimulated THP-1 cells, read-out: THP-1 Cytotoxicity CC50. The method, then: In order to assess the cytotoxicity of the compounds, an MTT cell viability assay was performed in either unstimulated THP-1 or HepG2 cells as follows. 5×10^4 THP-1 or 5×10^3 HepG2 cells were seeded into each well of a 96-well plate in 90 μL of media. Compounds were added to cells as described for the IL-10 assay and returned to the incubator for an additional 72 hours. Next, 25 μL of MTT solution (5 mg/mL in sterile PBS) was added to each well. Plates were incubated for 3 hours at 37° C., 5% CO2. Next, for THP-1 cells, 100 μl of MTT solubilization solution (40% Dimethylformamide, 2% glacial acetic acid, 16% sodium dodecyl sulfate) was then added to each well and plates were incubated at room temperature in the dark overnight. For HepG2 cells, media was aspirated, 50 μL of DMSO was added and plates were mixed briefly with an orbital plate shaker. Absorbance at 570 nm was measured using a Perkin-Elmer EnVision plate reader.
Absorbance values were converted to percentage of vehicle-treated controls. Data was then analyzed using a non-linear regression (variable slope (four-parameter)) equation in GraphPad Prism 7.0.
Table 2 provides THP-1 cytotoxicity assay CC50 values for example compounds. A indicates CC50>10 μM; B indicates CC50 between 1 and 10 μM (inclusive); C indicates CC50<1 μM. NT, not tested.

In series [2] the test system is IL-1β. Nature of the series: IL-1β inhibition assay (ELISA/HTRF of culture supernatants). The format is cell-based. As to conditions: Homo sapiens, PMA-differentiated THP-1 cells, tested 10 μM to 0.003 μM. The protocol: Human monocyte-like THP-1 cells were grown in RPMI media supplemented with 10% FBS (growth media) at 37° C., 5% CO2. Cell cultures were passaged every three days and maintained at a density of 5×10^5 to 1×10^6 cells per mL.
Compounds were prepared as 10 mM stock solutions in 100% DMSO. […] Each 200× dilution was then diluted 20-fold in growth media (step down dilution) to yield a 10× final assay concentration range. All compounds were tested over a final assay concentration range of 10 μM to 0.003 μM.
The level of IL-10 in supernatants from PMA-differentiated THP-1 cells was determined by ELISA using either the R&D Systems Human IL-1 beta/IL-1F2 Quantikine ELISA or the cisbio HTRF human IL 1 beta kit. Manufacturer's protocols were followed without deviation.
Background values were subtracted and resulting values were converted to percentage of vehicle-treated controls. Data was analyzed via GraphPad Prism 7.0 using a non-linear regression (variable slope (four-parameter)) equation.
Table 2 provides IL-10 ELISA EC50 values for example compounds. A indicates EC50>10 μM; B indicates EC50 between 1 and 10 μM (inclusive); C indicates EC50<1 μM.

For `O=C(Nc1c2c(cc3c1CCC3)CCC2)NS(=O)(=O)c1cccc(B(O)O)c1` [Example 1, (3-(N-((1,2,3,5,6,7-hexahydro-s-indacen-4-yl)carbamoyl)sulfamoyl)phenyl)boronic acid], in series [1], the CC50 at 72 h was more than 10 µM. In series [2], this compound had an EC50 of 1 to 10 µM.

In the case of `CC1(C)[C@@H]2C[C@H]3OB(c4cccc(S(=O)(=O)NC(=O)Nc5c6c(cc7c5CCC7)CCC6)c4)O[C@@]3(C)[C@H]1C2` [Example 2, N-((1,2,3,5,6,7-hexahydro-s-indacen-4-yl)carbamoyl)-3-((3aS,4S,6S,7aR)-3a,5,5-trimethylhexahydro-4,6-methanobenzo[d][1,3,2]dioxaborol-2-yl)benzenesulfonamide], the CC50 at 72 h in series [1] is more than 10 µM. This compound also yielded an EC50 in series [2] of 1 to 10 µM.

Turning to `CC(C)c1cccc(C(C)C)c1NC(=O)NS(=O)(=O)c1ccc(B(O)O)cc1` [Example 3, (4-(N-((2,6-diisopropylphenyl)carbamoyl)sulfamoyl)phenyl)boronic acid], the CC50 at 72 h in series [1] was more than 10 µM. Moreover, the EC50 in series [2] lay within 1 to 10 µM.

Turning to `CC(C)c1cccc(C(C)C)c1NC(=O)NS(=O)(=O)c1ccc(B2O[C@@H]3C[C@@H]4C[C@@H](C4(C)C)[C@]3(C)O2)cc1` [Example 4, N-((2,6-diisopropylphenyl)carbamoyl)-4-((3aS,4S,6S,7aR)-3a,5,5-trimethylhexahydro-4,6-methanobenzo[d][1,3,2]dioxaborol-2-yl)benzenesulfonamide], in series [1], the CC50 at 72 h is more than 10 µM. For the same compound, the EC50 in series [2] is more than 10 µM.

As to `CC(C)c1cccc(C(C)C)c1NC(=O)NS(=O)(=O)c1ccc(B(O)O)s1` [Example 5, (5-(N-((2,6-diisopropylphenyl)carbamoyl)sulfamoyl)thiophen-2-yl)boronic acid], the CC50 at 72 h in series [1] is more than 10 µM. The EC50 in series [2] was in the range of 1 to 10 µM.

For the compound `Cc1ccc(S(=O)(=O)NC(=O)Nc2c(C(C)C)cccc2C(C)C)cc1B1OC(C)(C)C(C)(C)O1` [Example 6, N-((2,6-diisopropylphenyl)carbamoyl)-4-methyl-3-(4,4,5,5-tetramethyl-1,3,2-dioxaborolan-2-yl)benzenesulfonamide], the CC50 at 72 h in series [1] is more than 10 µM. In series [2], this compound registered an EC50 of 1 to 10 µM.

With `Cc1ccc(S(=O)(=O)NC(=O)Nc2c(C(C)C)cccc2C(C)C)cc1B(O)O` [Example 7, (5-(N-((2,6-diisopropylphenyl)carbamoyl)sulfamoyl)-2-methylphenyl)boronic acid], in series [1], the CC50 at 72 h was more than 10 µM. Also, the EC50 in series [2] lay in the range of 1 to 10 µM.

As to `COc1ccc(B(O)O)cc1S(=O)(=O)NC(=O)Nc1c(C(C)C)cccc1C(C)C` [Example 8, (3-(N-((2,6-diisopropylphenyl)carbamoyl)sulfamoyl)-4-methoxyphenyl)boronic acid], the CC50 at 72 h in series [1] is more than 10 µM. Further, in series [2], the EC50 was more than 10 µM.

Turning to `COc1ccc(B2OC(C)(C)C(C)(C)O2)cc1S(=O)(=O)NC(=O)Nc1c(C(C)C)cccc1C(C)C` [Example 9, N-((2,6-diisopropylphenyl)carbamoyl)-2-methoxy-5-(4,4,5,5-tetramethyl-1,3,2-dioxaborolan-2-yl)benzenesulfonamide], the CC50 at 72 h in series [1] was more than 10 µM. Besides, in series [2], the EC50 was more than 10 µM.

Turning to `O=C(Nc1c2c(cc3c1CCC3)CCC2)NS(=O)(=O)c1ccccc1B(O)O` [Example 10, (2-(N-((1,2,3,5,6,7-hexahydro-s-indacen-4-yl)carbamoyl)sulfamoyl)phenyl)boronic acid], in series [1], the CC50 at 72 h is more than 10 µM. The EC50 in series [2] was more than 10 µM.

As for `CC(C)c1cccc(C(C)C)c1NC(=O)NS(=O)(=O)c1ccccc1B(O)O` [Example 11, (2-(N-((2,6-diisopropylphenyl)carbamoyl)sulfamoyl)phenyl)boronic acid], the CC50 at 72 h in series [1] is more than 10 µM. This compound showed an EC50 in series [2] of more than 10 µM.

Take `O=C(Nc1c2c(cc3c1CCC3)CCC2)NS(=O)(=O)c1ccc(B(O)O)s1` [Example 12, (5-(N-((1,2,3,5,6,7-hexahydro-s-indacen-4-yl)carbamoyl)sulfamoyl)thiophen-2-yl)boronic acid]: the CC50 at 72 h in series [1] is more than 10 µM. Moreover, in series [2], the EC50 is 1 to 10 µM.

Take `O=C(Nc1c2c(cc3c1CCC3)CCC2)NS(=O)(=O)c1ccc(B(O)O)cc1` [Example 13, (4-(N-((1,2,3,5,6,7-hexahydro-s-indacen-4-yl)carbamoyl)sulfamoyl)phenyl)boronic acid]: the CC50 at 72 h in series [1] is more than 10 µM. In addition, in series [2], the EC50 lay in the range of 1 to 10 µM.

In the case of `CC1(C)[C@@H]2CC3OB(c4ccc(S(=O)(=O)NC(=O)Nc5c6c(cc7c5CCC7)CCC6)cc4)O[C@@]3(C)[C@H]1C2` (stereo partly drawn) [Example 14, N-((1,2,3,5,6,7-hexahydro-s-indacen-4-yl)carbamoyl)-4-((3aS,4S,6S)-3a,5,5-trimethylhexahydro-4,6-methanobenzo[d][1,3,2]dioxaborol-2-yl)benzenesulfonamide], in series [1], the CC50 at 72 h was more than 10 µM. The compound further gave an EC50 in series [2] of 1 to 10 µM.

Take `Cc1c(B(O)O)cccc1S(=O)(=O)NC(=O)Nc1c2c(cc3c1CCC3)CCC2` [Example 15, (3-(N-((1,2,3,5,6,7-hexahydro-s-indacen-4-yl)carbamoyl)sulfamoyl)-2-methylphenyl)boronic acid]: in series [1], the CC50 at 72 h was more than 10 µM. The compound further came in with an EC50 in series [2] of 1 to 10 µM.

As to `Cc1c(B2OC(C)(C)C(C)(C)O2)cccc1S(=O)(=O)NC(=O)Nc1c2c(cc3c1CCC3)CCC2` [Example 16, N-((1,2,3,5,6,7-hexahydro-s-indacen-4-yl)carbamoyl)-2-methyl-3-(4,4,5,5-tetramethyl-1,3,2-dioxaborolan-2-yl)benzenesulfonamide], in series [1], the CC50 at 72 h is more than 10 µM. Moreover, the EC50 in series [2] lay within 1 to 10 µM.

Take `O=C(Nc1c2c(cc3c1CCC3)CCC2)NS(=O)(=O)c1ccc2c(c1)B(O)OC2` [Example 17, N-((1,2,3,5,6,7-hexahydro-s-indacen-4-yl)carbamoyl)-1-hydroxy-1,3-dihydrobenzo[c][1,2]oxaborole-6-sulfonamide]: in series [1], the CC50 at 72 h was more than 10 µM. Further, the EC50 in series [2] fell in the range of 1 to 10 µM.

Consider `CC(C)c1cc(B2OC(C)(C)C(C)(C)O2)ccc1NC(=O)NS(=O)(=O)c1cnn(C(C)C)c1` [Example 18, 1-isopropyl-N-((2-isopropyl-4-(4,4,5,5-tetramethyl-1,3,2-dioxaborolan-2-yl)phenyl)carbamoyl)-1H-pyrazole-4-sulfonamide], for which, in series [1], the 50% cytotoxic concentration (CC50) at 72 h was more than 10 µM. The compound also registered an EC50 in series [2] of more than 10 µM.

With `CC(C)c1cc(B(O)O)ccc1NC(=O)NS(=O)(=O)c1cnn(C(C)C)c1` [Example 19, (3-isopropyl-4-(3-((1-isopropyl-1H-pyrazol-4-yl)sulfonyl)ureido)phenyl)boronic acid], the CC50 at 72 h in series [1] was more than 10 µM. Besides, the EC50 in series [2] is more than 10 µM.

As to `CC(C)n1cc(S(=O)(=O)NC(=O)Nc2cc(B3OC(C)(C)C(C)(C)O3)ccc2C2CC2)cn1` [Example 20, N-((2-cyclopropyl-5-(4,4,5,5-tetramethyl-1,3,2-dioxaborolan-2-yl)phenyl)carbamoyl)-1-isopropyl-1H-pyrazole-4-sulfonamide], the CC50 at 72 h in series [1] is more than 10 µM. In series [2], this compound registered an EC50 of more than 10 µM.

`CC(C)n1cc(S(=O)(=O)NC(=O)Nc2cc(B(O)O)ccc2C2CC2)cn1` [Example 21, (4-cyclopropyl-3-(3-((1-isopropyl-1H-pyrazol-4-yl)sulfonyl)ureido)phenyl)boronic acid]: the CC50 at 72 h in series [1] lay in the range of 1 to 10 µM. Further, the EC50 in series [2] is more than 10 µM.

As to `CC(C)n1cc(S(=O)(=O)NC(=O)Nc2cc(B3OC(C)(C)C(C)(C)O3)ccc2C(C)(C)C)cn1` [Example 22, N-((2-(tert-butyl)-5-(4,4,5,5-tetramethyl-1,3,2-dioxaborolan-2-yl)phenyl)carbamoyl)-1-isopropyl-1H-pyrazole-4-sulfonamide], in series [1], the CC50 at 72 h is more than 10 µM. In series [2], this compound yielded an EC50 of more than 10 µM.

`CC(C)n1cc(S(=O)(=O)NC(=O)Nc2cc(B(O)O)ccc2C(C)(C)C)cn1` [Example 23, (4-(tert-butyl)-3-(3-((1-isopropyl-1H-pyrazol-4-yl)sulfonyl)ureido)phenyl)boronic acid]: in series [1], the CC50 at 72 h was more than 10 µM. The EC50 in series [2] was more than 10 µM.

As for `CC(C)c1cc(B(O)O)cc(C(C)C)c1NC(=O)NS(=O)(=O)c1cnn(C(C)C)c1` [Example 24, (3,5-diisopropyl-4-(3-((1-isopropyl-1H-pyrazol-4-yl)sulfonyl)ureido)phenyl)boronic acid], the CC50 at 72 h in series [1] was more than 10 µM. For the same compound, in series [2], the EC50 lay within 1 to 10 µM.
